According to patent publication US20240307340A1, “IMMUNOSUPPRESSIVE PHARMACEUTICAL COMPOSITION INCLUDING BENZENE DERIVATIVE AS IMMUNOSUPPRESSANT” (INJE UNIVERSITY INDUSTRY-ACADEMIC COOPERATION FOUNDATION, priority 2021, published 2024):

Columns and labels:
[1] = tested on: T lymphocyte cell line Jurkat E6-1; assay: Cytotoxicity (CCK-8 viability); assay type: cell-based; conditions: 20 h culture
Description: The cytotoxicities of the compounds of Examples 1-19 and Comparative Examples 1-3 to T lymphocyte cell line Jurkat E6-1 provided from the Korea Cell Line Bank were measured using a cell counting kit (CCK-8, Dojindo). After the cell line was allowed to grow in RPMI1640 medium supplemented with 10% FBS, 100 U/mL penicillin, and 100 μg/mL streptomycin, cells were plated in each well of a 96-well plate at a density of 2λ10^4 cells/well and treated with each of the compounds of Examples 1-19 and Comparative Examples 1-3. After culture in a 5% CO2 incubator at 37° C. for 20 h, CCK-8 solution was added to a concentration of 10%, followed by reculture in a 5% CO2 incubator at 37° C. for one and a half hours. The absorbance was measured at 450 nm (Reference: 650 nm) and was expressed in percent relative to the value […] from non-treated cells (viability 100%).
In Table 1, the number 100 corresponds to a viability of 100%.

[2] = tested on: BALB/c mice with psoriasis induced by Aldara cream (imiquimod); assay: Imiquimod-induced psoriasis model; assay type: in vivo; conditions: for psoriatic skin lesions (photographs, FIG. 49): 40 mg/kg intraperitoneal in 50 μL DMSO; for number of CD4 T cells in spleen (flow cytometry) / number of CD8 T cells in spleen (flow cytometry) / inflammatory cell infiltration (H&E staining of skin) / erythema / skin scaling / skin thickness: 40 mg/kg intraperitoneal; for number of CD4 T cells in spleen (flow cytometry) / number of CD8 T cells in spleen (flow cytometry): splenic T cells; for inflammatory cell infiltration (H&E staining of skin): versus negative control and DMSO group; for erythema / skin scaling / skin thickness: visual observation, P<0.05
Description: A test was conducted to evaluate the alleviation of psoriatic skin lesions using psoriasis animals. To this end, first, BALB/c mice (7 weeks old/20 g/female) purchased from Hana Biotech Co., Ltd., Korea were acclimated to the vivarium for a period of one week. After that, the hair on the back of the mice was shaved and completely removed with a depilatory cream (Niclean cream (thioglycolic acid […], Ildong Pharmaceutical Co., Ltd., Korea)). The animals were bred for 24 h. 80 mg of Aldara® cream (imiquimod 4 mg) was applied daily for 1 week (7 days, 7 times in total) to induce psoriasis, as shown in FIG. 49. Thereafter, 80 mg of Aldara® cream (imiquimod 4 mg) was continuously applied to each group for 10 days. During the administration, an observation was made as to whether psoriasis was alleviated. As a result, skin lesions were alleviated in the group administered the inventive compound than in the negative control or the DMSO-administered group, as shown in FIG. 49.
After the skin tissues of the test subjects were subjected to H&E staining according to the above schedule, the degrees of inflammatory cell infiltration were observed.
FIGS. 56 and 57 show the results of flow cytometry for the groups administered the compounds of Examples 14 and 17. The in vivo effects of the compounds of Examples 14 and 17 on T cells in the test subjects were investigated. To this end, the spleens were harvested from the mice administered each compound and T cells were extracted from the harvested spleens.

Row | SMILES | viability relative to non-treated cells, 10 μM (%) [1] [%] | viability relative to non-treated cells, 20 μM (%) [1] [%] | viability relative to non-treated cells, 30 μM (%) [1] [%] | psoriatic skin lesions (photographs, FIG. 49) [2] | number of CD4 T cells in spleen (flow cytometry) [2] | number of CD8 T cells in spleen (flow cytometry) [2] | inflammatory cell infiltration (H&E staining of skin) [2] | erythema [2] | skin scaling [2] | skin thickness [2]
1 | CCCCCCNC(=O)c1ccccc1OC [Example 4] | 96 | 92 | 88 | – | – | – | – | – | – | –
2 | CCCCC(CC)CNC(=O)c1ccccc1Br (centres unmarked) [Example 9] | 95.3 | 95.1 | 92.0 | – | – | – | – | – | – | –
3 | CC(C)=CCC/C(C)=C/CC/C(C)=C/COC(=O)c1ccccc1Br [Example 17] | 73.6 | 72.1 | 72.7 | alleviated | decreases | decreases | less inflammatory cell infiltration | significant decreases | significant decreases | significant decreases
4 | CC(C)=CCC/C(C)=C/CNC(=O)c1ccccc1F [Example 16] | 89.3 | 85.7 | 76.3 | – | – | – | – | – | – | –
5 | C=CCCCCCCCCCNC(=O)c1ccccc1F [Example 15] | 88.8 | 91.2 | 93.5 | – | – | – | – | – | – | –
6 | CCCCC(CC)CNC(=O)c1ccccc1F (centres unmarked) [Example 8] | 94.7 | 92.2 | 90.9 | – | – | – | – | – | – | –
7 | CCCCCCCCCCCCNC(=O)c1ccccc1O [Example 7] | 82 | 79.3 | 66 | – | – | – | – | – | – | –
8 | CC(C)=CCC/C(C)=C/CNC(=O)c1ccccc1Br [Example 14] | 96.9 | 96.6 | 95.4 | alleviated | decreases | decreases | less inflammatory cell infiltration | significant decreases | significant decreases | significant decreases
9 | CCCCCCCCCCNC(=O)c1ccccc1Br [Example 12] | 91 | 85.3 | 78.5 | – | – | – | – | – | – | –
10 | C=CCCCCCCCCCNC(=O)c1ccccc1Br [Example 13] | 98.8 | 97.9 | 90.3 | – | – | – | – | – | – | –
